Experimental data from PubChem BioAssay AID179 (DTP/NCI, 2004).
pEC50, pIC50: −log10 of the molar value. The source made the active and inactive calls.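 How the source made its calls: active means compounds giving half or more protection of infected cells from virus-caused growth loss, again on retest; inactive means the rest.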

System: CEM cells HIV-1 protection, formazan growth assay
Experiment: NCI AIDS Antiviral Assay
Settings: for pIC50: measured here: growth of uninfected CEM cells
Outline: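 CEM (human) cells, HIV-1 infected vs uninfected, 5-point dosing, formazan growth read-out. Retest threshold 50% protection.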

SMILES: CCOC(=O)c1c(C)cc(C)nc1[S][Sn]([Br])([Br])[S]c1nc(C)cc(C)c1C(=O)OCC
- pEC50: 4.39
- pIC50: 4.29

SMILES: O=C1CC2(CCNCC2)C(=O)N1N1CCCCC1
- pEC50: < 3.70
- pIC50: < 3.70

SMILES: NC(CCCC(N)P(=O)(O)O)C(=O)O (centres undefined)
- outcome: inactive

SMILES: O=C(NCc1cccc(C(F)(F)F)c1)c1cc2sccc2nc1C(F)(F)F
- pEC50: < 3.70
- pIC50: < 3.70

SMILES: CS(=O)(=O)OCCn1cnc2nc(NC(=O)c3ccccc3)[nH]c(=O)c21
- pEC50: < 3.74
- pIC50: < 3.74

SMILES: CSc1cc(-c2ccccn2)nc(-c2ccccn2)c1.CSc1cc(-c2ccccn2)nc(-c2ccccn2)c1.[O-][Cl+3]([O-])([O-])[O-].[Zn+2]
- pEC50: < 3.70
- pIC50: 7.20

SMILES: c1ccc(Nc2nnnn2-c2ccccc2)cc1
- pEC50: < 3.70
- pIC50: < 3.70

SMILES: COC(=O)C1=C(N2CCCC2)C2c3ccccc3SC12C(=O)OC (centres undefined)
- pEC50: 5.24
- pIC50: 4.26

SMILES: C[C@H]1C[C@H]2[C@@H]3CCC4=CC(=O)C=C[C@]4(C)C3=CC[C@]2(C)[C@@]1(O)C(=O)CO
- pEC50: 3.99
- pIC50: 3.97

SMILES: CC1=C(OC2OC(CO)C(O)C(O)C2O)C(=O)C[C@H]2C1=CC[C@@H]1[C@@]2(C)C(=O)C[C@]2(C)[C@@H]([C@@](C)(O)C(=O)CCC(C)(C)O)[C@H](O)C[C@@]12C (some centres undefined)
- pEC50: < 3.70
- pIC50: < 3.70

SMILES: CC1=C(O)C(=O)C2C(=O)C1C(C)C2c1ccccc1 (centres undefined)
- pEC50: < 3.71
- pIC50: < 3.71

SMILES: O=C1OC(c2ccccc2)N/C1=C\c1ccc2c(c1)OCO2 (centres undefined)
- pEC50: < 3.70
- pIC50: 4.16

SMILES: Cc1n[nH]c(=O)c2cc3oc4ccccc4c3n12
- pEC50: < 3.97
- pIC50: 4.49

SMILES: CCCCCCCCCCCCC1N=C(N)NC2(CCCO2)C1C(=O)OC (centres undefined)
- pEC50: < 3.70
- pIC50: 5.24

SMILES: Cc1nn(-c2ccccc2)c2nc3ccc(Cl)cc3c(-c3ccccc3)c12
- pEC50: < 3.70
- pIC50: < 3.70

SMILES: O=C(OCCNC(=O)N1CCOCC1)OCCNC(=O)N1CCOCC1
- pEC50: < 3.70
- pIC50: < 3.70

SMILES: COC(=O)c1ccccc1/C=C1/Cc2cccc(C)c2C1=O
- pEC50: < 3.70
- pIC50: < 3.70

SMILES: CC1(C)O[C@H](C(=O)O)[C@@H](C(=O)O)O1
- pEC50: < 3.70
- pIC50: < 3.70

SMILES: CC(C)CCCC(C)[C@H]1CC[C@H]2[C@@H]3CC[C@H]4C[C@@H](CCC=C(c5cc(Cl)c(O)c(C(=O)OC(C)(C)C)c5)c5cc(Cl)c(O)c(C(=O)OC(C)(C)C)c5)CC[C@]4(C)[C@H]3CC[C@]12C (some centres undefined)
- pEC50: < 4.30
- pIC50: < 4.30

SMILES: CCN=C(NC(=O)c1ccc(F)cc1)SCSC(=NCC)NC(=O)c1ccc(F)cc1
- pEC50: < 3.70
- pIC50: < 3.70

SMILES: CCCCCCCC(=O)[O-].N.N.N.N.N.[Co+3].[O-][Cl+3]([O-])([O-])[O-]
- outcome: inactive

SMILES: C=C(C)c1nc(C#N)c(N)o1
- pEC50: < 3.70
- pIC50: < 3.70

SMILES: Cc1nc(C)c(N2CCN([N+](=O)[O-])CC2)c(=O)[nH]1
- pEC50: < 3.70
- pIC50: < 3.70
